Test system: COVID-19 virus
Assay: In-vitro antiviral CPE test in Vero E6 cells, COVID-19 virus
Assay type: cell-based

| Compound | COVID-19 virus SI |
| --- | --- |
| COc1cc(O)cc(C2OCC3C(c4ccc(OC5OC(CO)C(O)C(O)C5O)c(OC)c4)OCC23)c1 (stereo not shown) [compound 1] | 31.61 |
| COc1ccc([C@H]2OC[C@H]3[C@@H]2CO[C@H]3c2ccc(O[C@@H]3O[C@H](CO)[C@@H](O)[C@H](O)[C@H]3O)c(OC)c2)cc1OC [compound 2] | 30.50 |
| COc1ccc(C2OCC3C(c4ccc(OC)c(OC)c4)OCC23)cc1O (stereo not shown) [compound 3] | 5.33 |
| COc1ccc(C2OCC3C(c4ccc(OC(=O)C(C)c5ccc(CC(C)C)cc5)c(OC)c4)OCC23)cc1OC (stereo not shown) [compound 6] | 4.72 |

— patent US20250049831A1, “ANTIVIRAL USE OF BISE[…], AND BISEPOXYLIGNAN COMPOSITION AND PREPARATION OF BISE[…]” (priority 2021, published 2025)
